{"source": "patent US9028845B2", "about": "“Chimeric immunomodulatory compounds and methods of using the same-IV” (Dynavax Technologies Corporation, priority 2001, dated 2015)", "key": {"mice": {"tested_on": "mice", "experiment": "Serum cytokines (IL-12 p40, IL-6, TNF-α) after subcutaneous injection in mice", "type": "in vivo", "conditions": "20 ug subcutaneous, blood 2 hours later", "outline": "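Blood was taken 2 h after subcutaneous injection. LPS positive-control mice were dosed intraperitoneally and bled at 1.5 h, at the peak of TNF-α. Sera were stored at −80° C and TNF-α, IL-6 and IL-12 were measured by immunoassay kits or antibody pairs in duplicate.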"}, "human PBMCs": {"tested_on": "human PBMCs", "experiment": "Human PBMC cytokine response assay (IFN-γ and IFN-α in cell-free medium by ELISA), with or without cPLGA", "type": "cell-based"}, "[1]": {"conditions": "Donor 5, 20 μg/ml (mixtures: 20 μg/ml total), 24 h"}, "[2]": {"conditions": "Donor 6, 20 μg/ml (mixtures: 20 μg/ml total), 24 h"}}, "note": "Strand notation (5' to 3'): a small letter for the sugar, then the base; units joined by * are phosphorothioate-linked, units joined directly phosphodiester-linked; [ ] holds rarer units or linkages, { } end groups; capitals alone tell only the bases. d = 2'-deoxy (DNA)"}
{"substance": "5′-TGACTGTGAACCTTAGAGATGA-3′ (SEQ ID NO: 3) (dT*dG*dA*dC*dT*dG*dT*dG*dA*dA*dC*dC*dT*dT*dA*dG*dA*dG*dA*dT*dG*dA) [Compound P-7, negative control, reference compound]", "values": [{"measurement": "induction of serum IL-12 p40, IL-6 and TNF-α, in words", "setting": "mice", "result": "inactive"}, {"measurement": "IFN-α (pg/ml) Donor 1", "setting": "human PBMCs; Donor 1, 20 μg/ml, 24 h", "result": 0, "unit": "pg/mL"}, {"measurement": "IFN-γ (pg/ml) Donor 1", "setting": "human PBMCs; Donor 1, 20 μg/ml, 24 h", "result": 410, "unit": "pg/mL"}, {"measurement": "IFN-α (pg/ml) Donor 2", "setting": "human PBMCs; Donor 2, 20 μg/ml, 24 h", "result": 0, "unit": "pg/mL"}, {"measurement": "IFN-γ (pg/ml) Donor 2", "setting": "human PBMCs; Donor 2, 20 μg/ml, 24 h", "result": 51, "unit": "pg/mL"}, {"measurement": "IFN-α (pg/ml) Donor 3", "setting": "human PBMCs; Donor 3, 20 μg/ml, 24 h", "result": 0, "unit": "pg/mL"}, {"measurement": "IFN-γ (pg/ml) Donor 3", "setting": "human PBMCs; Donor 3, 20 μg/ml, 24 h", "result": 3, "unit": "pg/mL"}, {"measurement": "IFN-α (pg/ml) Donor 4", "setting": "human PBMCs; Donor 4, 20 μg/ml, 24 h", "result": 31, "unit": "pg/mL"}, {"measurement": "IFN-γ (pg/ml) Donor 4", "setting": "human PBMCs; Donor 4, 20 μg/ml, 24 h", "result": 8, "unit": "pg/mL"}, {"measurement": "IFN-α (pg/ml) Donor 5", "setting": "human PBMCs; [1]", "result": 20, "unit": "pg/mL"}, {"measurement": "IFN-γ (pg/ml) Donor 5", "setting": "human PBMCs; [1]", "result": 7, "unit": "pg/mL"}, {"measurement": "IFN-α (pg/ml) Donor 6", "setting": "human PBMCs; [2]", "result": 94, "unit": "pg/mL"}, {"measurement": "IFN-γ (pg/ml) Donor 6", "setting": "human PBMCs; [2]", "result": 66, "unit": "pg/mL"}, {"measurement": "IFN-α (pg/ml) Donor 7", "setting": "human PBMCs; Donor 7, 20 μg/ml, 24 h", "result": 0, "unit": "pg/mL"}, {"measurement": "IFN-γ (pg/ml) Donor 7", "setting": "human PBMCs; Donor 7, 20 μg/ml, 24 h", "result": 2, "unit": "pg/mL"}, {"measurement": "IFN-α (pg/ml) Donor 8", "setting": "human PBMCs; Donor 8, 20 μg/ml, 24 h", "result": 0, "unit": "pg/mL"}, {"measurement": "IFN-γ (pg/ml) Donor 8", "setting": "human PBMCs; Donor 8, 20 μg/ml, 24 h", "result": 2, "unit": "pg/mL"}, {"measurement": "IFN-α Donor 9", "setting": "human PBMCs; Donor 9, 20 μg/ml, 24 h", "result": 0}, {"measurement": "IFN-γ Donor 9", "setting": "human PBMCs; Donor 9, 20 μg/ml, 24 h", "result": 5}, {"measurement": "IFN-α Donor 10", "setting": "human PBMCs; Donor 10, 20 μg/ml, 24 h", "result": 3}, {"measurement": "IFN-γ Donor 10", "setting": "human PBMCs; Donor 10, 20 μg/ml, 24 h", "result": 2}, {"measurement": "IFN-α Donor 11", "setting": "human PBMCs; Donor 11, 20 μg/ml, 24 h", "result": 1}, {"measurement": "IFN-γ Donor 11", "setting": "human PBMCs; Donor 11, 20 μg/ml, 24 h", "result": 3}, {"measurement": "IFN-α Donor 12", "setting": "human PBMCs; Donor 12, 20 μg/ml, 24 h", "result": 5}, {"measurement": "IFN-γ Donor 12", "setting": "human PBMCs; Donor 12, 20 μg/ml, 24 h", "result": 2}, {"measurement": "IFN-α", "setting": "human PBMCs; Example 58, 0.8 ug/ml, donor 1", "result": 52, "unit": "pg/mL"}, {"measurement": "IFN-α", "setting": "human PBMCs; Example 58, 0.8 ug/ml, donor 2", "result": 52, "unit": "pg/mL"}, {"measurement": "IFN-α", "setting": "human PBMCs; Example 58, 0.8 ug/ml, donor 3", "result": 52, "unit": "pg/mL"}, {"measurement": "IFN-α", "setting": "human PBMCs; Example 58, 0.8 ug/ml, donor 4", "result": 52, "unit": "pg/mL"}, {"measurement": "IFN-α mean", "setting": "human PBMCs; Example 58, 0.8 ug/ml, mean of four individuals", "result": 52, "unit": "pg/mL"}, {"measurement": "IFN-α", "setting": "human PBMCs; Example 58, 4 ug/ml, donor 1", "result": 52, "unit": "pg/mL"}, {"measurement": "IFN-α", "setting": "human PBMCs; Example 58, 4 ug/ml, donor 2", "result": 52, "unit": "pg/mL"}, {"measurement": "IFN-α", "setting": "human PBMCs; Example 58, 4 ug/ml, donor 3", "result": 52, "unit": "pg/mL"}, {"measurement": "IFN-α", "setting": "human PBMCs; Example 58, 4 ug/ml, donor 4", "result": 52, "unit": "pg/mL"}, {"measurement": "IFN-α mean", "setting": "human PBMCs; Example 58, 4 ug/ml, mean of four individuals", "result": 52, "unit": "pg/mL"}, {"measurement": "IFN-α", "setting": "human PBMCs; Example 58, 20 ug/ml, donor 1", "result": 52, "unit": "pg/mL"}, {"measurement": "IFN-α", "setting": "human PBMCs; Example 58, 20 ug/ml, donor 2", "result": 52, "unit": "pg/mL"}, {"measurement": "IFN-α", "setting": "human PBMCs; Example 58, 20 ug/ml, donor 3", "result": 52, "unit": "pg/mL"}, {"measurement": "IFN-α", "setting": "human PBMCs; Example 58, 20 ug/ml, donor 4", "result": 52, "unit": "pg/mL"}, {"measurement": "IFN-α mean", "setting": "human PBMCs; Example 58, 20 ug/ml, mean of four individuals", "result": 52, "unit": "pg/mL"}, {"measurement": "IFN-α", "setting": "human PBMCs; Example 59, 0.8 ug/ml, donor 48", "result": 102, "unit": "pg/mL"}, {"measurement": "IFN-α", "setting": "human PBMCs; Example 59, 0.8 ug/ml, donor 177", "result": 102, "unit": "pg/mL"}, {"measurement": "IFN-α", "setting": "human PBMCs; Example 59, 0.8 ug/ml, donor 272", "result": 102, "unit": "pg/mL"}, {"measurement": "IFN-α", "setting": "human PBMCs; Example 59, 0.8 ug/ml, donor 273", "result": 102, "unit": "pg/mL"}, {"measurement": "IFN-α mean", "setting": "human PBMCs; Example 59, 0.8 ug/ml, mean of four donors", "result": 102, "unit": "pg/mL"}, {"measurement": "IFN-α", "setting": "human PBMCs; Example 59, 4 ug/ml, donor 48", "result": 102, "unit": "pg/mL"}, {"measurement": "IFN-α", "setting": "human PBMCs; Example 59, 4 ug/ml, donor 177", "result": 102, "unit": "pg/mL"}, {"measurement": "IFN-α", "setting": "human PBMCs; Example 59, 4 ug/ml, donor 272", "result": 102, "unit": "pg/mL"}, {"measurement": "IFN-α", "setting": "human PBMCs; Example 59, 4 ug/ml, donor 273", "result": 102, "unit": "pg/mL"}, {"measurement": "IFN-α mean", "setting": "human PBMCs; Example 59, 4 ug/ml, mean of four donors", "result": 102, "unit": "pg/mL"}, {"measurement": "IFN-α", "setting": "human PBMCs; Example 59, 20 ug/ml, donor 48", "result": 102, "unit": "pg/mL"}, {"measurement": "IFN-α", "setting": "human PBMCs; Example 59, 20 ug/ml, donor 177", "result": 102, "unit": "pg/mL"}, {"measurement": "IFN-α", "setting": "human PBMCs; Example 59, 20 ug/ml, donor 272", "result": 102, "unit": "pg/mL"}, {"measurement": "IFN-α", "setting": "human PBMCs; Example 59, 20 ug/ml, donor 273", "result": 102, "unit": "pg/mL"}, {"measurement": "IFN-α mean", "setting": "human PBMCs; Example 59, 20 ug/ml, mean of four donors", "result": 102, "unit": "pg/mL"}, {"measurement": "IFN-α", "setting": "human PBMCs; Table 9, donor 28089", "result": 0, "unit": "pg/mL"}, {"measurement": "IFN-γ", "setting": "human PBMCs; Table 9, donor 28089", "result": 0, "unit": "pg/mL"}, {"measurement": "IFN-α", "setting": "human PBMCs; Table 9, donor 28090", "result": 27, "unit": "pg/mL"}, {"measurement": "IFN-γ", "setting": "human PBMCs; Table 9, donor 28090", "result": 4, "unit": "pg/mL"}, {"measurement": "IFN-α", "setting": "human PBMCs; Table 9, donor 28098", "result": 19, "unit": "pg/mL"}, {"measurement": "IFN-γ", "setting": "human PBMCs; Table 9, donor 28098", "result": 0, "unit": "pg/mL"}, {"measurement": "IFN-α", "setting": "human PBMCs; Table 9, donor 28099", "result": 37, "unit": "pg/mL"}, {"measurement": "IFN-γ", "setting": "human PBMCs; Table 9, donor 28099", "result": 2, "unit": "pg/mL"}, {"measurement": "IFN-α mean", "setting": "human PBMCs; Table 9, mean of donors", "result": 21, "unit": "pg/mL"}, {"measurement": "IFN-γ mean", "setting": "human PBMCs; Table 9, mean of donors", "result": 1, "unit": "pg/mL"}, {"measurement": "IFN-α", "setting": "human PBMCs; Table 10, donor 28042", "result": 0, "unit": "pg/mL"}, {"measurement": "IFN-γ", "setting": "human PBMCs; Table 10, donor 28042", "result": 66, "unit": "pg/mL"}, {"measurement": "IFN-α", "setting": "human PBMCs; Table 10, donor 28043", "result": 11, "unit": "pg/mL"}, {"measurement": "IFN-γ", "setting": "human PBMCs; Table 10, donor 28043", "result": 76, "unit": "pg/mL"}, {"measurement": "IFN-α", "setting": "human PBMCs; Table 10, donor 28044", "result": 22, "unit": "pg/mL"}, {"measurement": "IFN-γ", "setting": "human PBMCs; Table 10, donor 28044", "result": 26, "unit": "pg/mL"}, {"measurement": "IFN-α", "setting": "human PBMCs; Table 10, donor 28045", "result": 20, "unit": "pg/mL"}, {"measurement": "IFN-γ", "setting": "human PBMCs; Table 10, donor 28045", "result": 13, "unit": "pg/mL"}, {"measurement": "IFN-α mean", "setting": "human PBMCs; Table 10, mean of donors", "result": 13, "unit": "pg/mL"}, {"measurement": "IFN-γ mean", "setting": "human PBMCs; Table 10, mean of donors", "result": 45, "unit": "pg/mL"}, {"measurement": "IFN-α", "setting": "human PBMCs; Table 11, donor 28042", "result": 0, "unit": "pg/mL"}, {"measurement": "IFN-γ", "setting": "human PBMCs; Table 11, donor 28042", "result": 34, "unit": "pg/mL"}, {"measurement": "IFN-α", "setting": "human PBMCs; Table 11, donor 28043", "result": 0, "unit": "pg/mL"}, {"measurement": "IFN-γ", "setting": "human PBMCs; Table 11, donor 28043", "result": 19, "unit": "pg/mL"}, {"measurement": "IFN-α", "setting": "human PBMCs; Table 11, donor 28044", "result": 4, "unit": "pg/mL"}, {"measurement": "IFN-γ", "setting": "human PBMCs; Table 11, donor 28044", "result": 48, "unit": "pg/mL"}, {"measurement": "IFN-α", "setting": "human PBMCs; Table 11, donor 28045", "result": 54, "unit": "pg/mL"}, {"measurement": "IFN-γ", "setting": "human PBMCs; Table 11, donor 28045", "result": 35, "unit": "pg/mL"}, {"measurement": "IFN-α mean", "setting": "human PBMCs; Table 11, mean of donors", "result": 15, "unit": "pg/mL"}]}
